Tests used:
vagal bradycardia (M2) = assay: M1/M2 selectivity in the rat: reduction of bradycardia caused by vagus stimulation; type: in vivo; settings: iv, 5 min, male THOM rats, i.v., dose reducing vagal bradycardia (M2) by 50%, 5 minutes after injection, read-out: -log ED50, Heart (converted)
Protocol: (§1) The dosage of the substances which reduced either the vagal bradycardia (M2) or the rise in blood pressure (M1) by 50% was determined graphically. For the results see Table II.

[1] = test system: rise in blood pressure caused by McN-A-343 (M1); assay: M1/M2 selectivity in the rat: reduction of rise in blood pressure caused by McN-A-343; type: in vivo; settings: iv, 5 min, male THOM rats, i.v., dose reducing rise in blood pressure (M1) caused by 0.3 mg/kg McN-A-343 by 50%, read-out: -log ED50, Blood pressure (converted)
Protocol: as §1

[2] = test system: acetylcholine effect on heart rate; assay: Inhibition of the effect of acetylcholine on heart rate in guinea pigs; type: in vivo, guinea pig; settings: Cavia porcellus, 5 min; read-out: -log ED50, Heart (converted)
Protocol: (§2) 5 minutes after the administration of the test substance, 10 microgram/kg of acetylcholine were simultaneously injected intravenously and intra-arterially into anesthetized guinea pigs. The heart rate was recorded directly by extracorporeal derivation of the ECG, the expiration resistance according to Konzett-Rossler and contraction of the exposed bladder. In order to determine the inhibition of the acetylcholine activity on the organs under investigation, dosage/activity curves were recorded and from them -log ED50 values were determined.

[3] = test system: acetylcholine effect on bladder contraction; assay: Inhibition of the effect of acetylcholine on the bladder in guinea pigs; type: in vivo, guinea pig; settings: Cavia porcellus, 5 min; read-out: -log ED50, Bladder (converted)
Protocol: as §2

[4] = test system: acetylcholine effect on bronchi (expiration resistance); assay: Inhibition of the effect of acetylcholine on bronchi in guinea pigs; type: in vivo, guinea pig; settings: Cavia porcellus, 5 min; read-out: -log ED50, Bronchi (converted)
Protocol: as §2

[5] = test system: secretion of saliva initiated by pilocarpine; assay: Salivation-inhibiting effect in the rat (pilocarpine-induced); type: in vivo; settings: iv, male THOM rats anesthetized with urethane, i.v., dose reducing volume of saliva by 50%, 2 mg/kg s.c. pilocarpine, read-out: -log ED50, Salivation inhibition (converted)
Protocol: The secretion of saliva was initiated by subcutaneous administration of 2 mg/kg of pilocarpine. The saliva was absorbed with blotting paper and the surface area covered was measured every 5 minutes by planimetry. The dosage of the substance which reduced the volume of saliva by 50% was determined graphically. For the results see Table II.

[6] = molecular target: muscarinic receptors, cerebral cortex; assay: Receptor binding test in vitro, 3H-NMS displacement, cerebral cortex homogenate; settings: rat cerebral cortex homogenate 1:3000; 0.3 nanomolar 3H-NMS; 30° C., 45 minutes; read-out: Receptor Binding Tests IC50, Cortex
Protocol: (§3) The organs were donated by male Sprague-Dawley rats weighing 180-220 g. After the heart and submandular gland and cerebral cortex had been removed, all other steps were carried out in ice cold Hepes HCl buffer (pH 7.4; 100 millimolar NaCl, 10 millimolar MgCl2). The whole heart was cut up with scissors. All the organs were then homogenized in a Potter apparatus.
(§4) For the binding test the homogenized organs were diluted as follows:
(§5) The homogenized organs were incubated at a certain concentration of the radioligand and at a series of concentrations of the non-radioactive test substances in an Eppendorf centrifuge tube at 30° C. Incubation lasted 45 minutes. The radioligand used was 0.3 nanomolar ^3 H--N- methylscopolamine (^3 H-NMS). Incubation was ended by the addition of ice cold buffer followed by vacuum filtration. The filters were rinsed with cold buffer and their radioactivity was determined. It represents the sum of specific and non-specific binding of ^3 H-NMS. The proportion of non-specific binding was defined as the radioactivity which was bound in the presence of 1 micromolar quinuclidinylbenzylate. Each measurement was taken four times. The IC50 values of the non-labelled test substances were determined graphically. They represent that concentration of test substance at which the specific binding of ^3 H-NMS to the muscarinic receptors in the various organs was inhibited by 50%.

[7] = molecular target: T1, muscarinic receptors, heart (Rattus norvegicus, UniProt P10980); assay: Receptor binding test in vitro, 3H-NMS displacement, whole heart homogenate; settings: rat whole heart homogenate 1:400; 0.3 nanomolar 3H-NMS; 30° C., 45 minutes; read-out: Receptor Binding Tests IC50, Heart
T1 construct: The whole heart was cut up with scissors; from tissue; host or cells: whole heart of male Sprague-Dawley rats, homogenate
T1 sequence (P10980 1-466): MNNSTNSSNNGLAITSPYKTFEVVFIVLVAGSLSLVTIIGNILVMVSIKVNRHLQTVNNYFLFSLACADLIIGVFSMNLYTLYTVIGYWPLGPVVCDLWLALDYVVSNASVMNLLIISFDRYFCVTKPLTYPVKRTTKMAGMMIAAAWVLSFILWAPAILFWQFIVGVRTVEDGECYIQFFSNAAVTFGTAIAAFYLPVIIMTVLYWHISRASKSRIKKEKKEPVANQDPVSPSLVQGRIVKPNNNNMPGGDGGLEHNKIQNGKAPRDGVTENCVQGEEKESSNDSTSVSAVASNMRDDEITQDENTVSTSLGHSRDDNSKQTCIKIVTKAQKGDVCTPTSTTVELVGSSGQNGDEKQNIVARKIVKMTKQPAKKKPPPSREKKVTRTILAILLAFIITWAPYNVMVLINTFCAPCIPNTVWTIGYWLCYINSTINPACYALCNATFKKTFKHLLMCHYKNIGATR
Protocol: as §3, §4, §5

[8] = molecular target: T2, muscarinic receptors, submandibular gland (Rattus norvegicus, UniProt P08483); assay: Receptor binding test in vitro, 3H-NMS displacement, submandibular gland homogenate; settings: rat submandibular gland homogenate 1:400; 0.3 nanomolar 3H-NMS; 30° C., 45 minutes; read-out: Receptor Binding Tests IC50, Submandibular gland
T2 construct: All the organs were then homogenized in a Potter apparatus; from tissue; host or cells: submandibular gland of male Sprague-Dawley rats, homogenate
T2 sequence (P08483 whole entry): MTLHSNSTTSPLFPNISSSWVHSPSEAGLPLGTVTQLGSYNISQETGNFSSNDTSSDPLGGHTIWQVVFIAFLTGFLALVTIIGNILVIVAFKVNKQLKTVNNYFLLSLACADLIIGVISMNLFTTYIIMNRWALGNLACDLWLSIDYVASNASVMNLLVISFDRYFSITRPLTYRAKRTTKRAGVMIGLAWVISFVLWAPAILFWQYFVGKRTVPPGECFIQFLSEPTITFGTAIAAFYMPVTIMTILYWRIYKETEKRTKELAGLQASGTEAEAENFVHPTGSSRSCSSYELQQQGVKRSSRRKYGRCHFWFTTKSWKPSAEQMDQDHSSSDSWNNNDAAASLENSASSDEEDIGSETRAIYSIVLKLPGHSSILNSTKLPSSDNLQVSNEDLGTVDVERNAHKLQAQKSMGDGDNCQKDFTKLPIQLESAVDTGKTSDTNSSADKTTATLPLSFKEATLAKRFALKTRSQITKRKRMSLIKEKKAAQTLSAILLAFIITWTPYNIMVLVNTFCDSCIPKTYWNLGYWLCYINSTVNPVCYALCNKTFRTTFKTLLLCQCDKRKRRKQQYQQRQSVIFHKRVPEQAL
Protocol: as §3, §4, §5

SMILES	ED50 (vagal bradycardia (M2))	ED50 [1]	ED50 [2]	ED50 [3]	ED50 [4]	ED50 [5]	IC50 [6]	IC50 [7]	IC50 [8]
CN1[C@@H]2CC[C@H]1C[C@@H](OC(=O)C(CO)c1ccccc1)C2 (stereo partly drawn) [E, atropine, reference compound]	0.0115 µmol/kg	0.0457 µmol/kg	0.02 µmol/kg	0.0933 µmol/kg	–	–	–	–	–
CN1CCCC1CCNCC(=O)N1c2ccccc2C(=O)Nc2cccnc21 (stereo not drawn) [A, 5,11-dihydro-11-[[[2-(1-methyl-2-pyrrolidinyl)ethyl]amino]acetyl]-6H-pyrido[2,3-b][1,4]benzodiazepin-6-one]	–	–	0.0977 µmol/kg	0.537 µmol/kg	0.102 µmol/kg	–	–	–	–
CCN(CC)CC1CCCCN1CC(=O)N1c2ccccc2C(=O)Nc2cccnc21 (stereo not drawn) [C, 11-[[2-[(diethylamino)methyl]-1-piperidinyl]acetyl]-5,11-dihydro-6H-pyrido[2,3-b][1,4]benzodiazepin-6-one, reference compound]	0.38 µmol/kg	–	–	–	–	10 µmol/kg	–	–	–
CCN1CCCC1CN(C)CC(=O)N1c2ccccc2C(=O)Nc2cccnc21 (stereo not drawn) [B, 5,11-dihydro-11-[[[(1-ethyl-2-pyrrolidinyl)methyl]methylamino]acetyl]-6H-pyrido[2,3-b][1,4]benzodiazepin-6-one]	0.00741 µmol/kg	0.141 µmol/kg	0.0457 µmol/kg	1.17 µmol/kg	0.0347 µmol/kg	0.813 µmol/kg	30 nM	6 nM	50 nM
